# What was measured:
# [1] = molecular target: TBK1 (Homo sapiens (Human), UniProt Q9UHD2); experiment: TR-FRET kinase assay, TBK1; conditions: read-out: TBK1-IC50; full length recombinant TBK1 2.5 nM, 2x Km ATP, 1 μM peptide, 240 min at 25° C.; geometric mean of minimum four determinations
# Sequence of TBK1 (Q9UHD2 whole entry): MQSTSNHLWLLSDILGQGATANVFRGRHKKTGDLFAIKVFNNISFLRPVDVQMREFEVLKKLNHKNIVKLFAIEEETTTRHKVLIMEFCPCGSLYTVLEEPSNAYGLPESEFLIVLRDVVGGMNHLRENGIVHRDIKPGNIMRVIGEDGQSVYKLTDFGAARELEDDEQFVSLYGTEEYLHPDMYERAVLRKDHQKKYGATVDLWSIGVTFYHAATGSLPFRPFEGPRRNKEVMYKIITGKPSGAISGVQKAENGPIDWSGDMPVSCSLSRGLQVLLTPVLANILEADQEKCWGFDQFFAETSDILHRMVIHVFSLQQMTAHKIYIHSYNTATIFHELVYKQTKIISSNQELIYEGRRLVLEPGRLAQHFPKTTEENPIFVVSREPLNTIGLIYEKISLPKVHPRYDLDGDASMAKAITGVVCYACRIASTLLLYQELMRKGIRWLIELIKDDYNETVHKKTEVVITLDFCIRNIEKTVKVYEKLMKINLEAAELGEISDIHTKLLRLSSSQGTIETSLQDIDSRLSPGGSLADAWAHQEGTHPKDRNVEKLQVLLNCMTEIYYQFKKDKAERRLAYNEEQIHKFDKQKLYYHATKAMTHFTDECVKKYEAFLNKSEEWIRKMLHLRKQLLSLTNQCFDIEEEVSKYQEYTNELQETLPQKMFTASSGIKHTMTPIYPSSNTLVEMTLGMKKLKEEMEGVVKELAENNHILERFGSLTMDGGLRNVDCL
# [2] = molecular target: IKKε (Homo sapiens (Human), UniProt Q14164); experiment: TR-FRET kinase assay, IKKε; format: biochemical; conditions: full length recombinant IKKε 0.3 nM, 2x Km ATP, 1 μM peptide, 240 min at 25° C.; geometric mean of minimum four determinations
# Sequence of IKKε (Q14164 whole entry): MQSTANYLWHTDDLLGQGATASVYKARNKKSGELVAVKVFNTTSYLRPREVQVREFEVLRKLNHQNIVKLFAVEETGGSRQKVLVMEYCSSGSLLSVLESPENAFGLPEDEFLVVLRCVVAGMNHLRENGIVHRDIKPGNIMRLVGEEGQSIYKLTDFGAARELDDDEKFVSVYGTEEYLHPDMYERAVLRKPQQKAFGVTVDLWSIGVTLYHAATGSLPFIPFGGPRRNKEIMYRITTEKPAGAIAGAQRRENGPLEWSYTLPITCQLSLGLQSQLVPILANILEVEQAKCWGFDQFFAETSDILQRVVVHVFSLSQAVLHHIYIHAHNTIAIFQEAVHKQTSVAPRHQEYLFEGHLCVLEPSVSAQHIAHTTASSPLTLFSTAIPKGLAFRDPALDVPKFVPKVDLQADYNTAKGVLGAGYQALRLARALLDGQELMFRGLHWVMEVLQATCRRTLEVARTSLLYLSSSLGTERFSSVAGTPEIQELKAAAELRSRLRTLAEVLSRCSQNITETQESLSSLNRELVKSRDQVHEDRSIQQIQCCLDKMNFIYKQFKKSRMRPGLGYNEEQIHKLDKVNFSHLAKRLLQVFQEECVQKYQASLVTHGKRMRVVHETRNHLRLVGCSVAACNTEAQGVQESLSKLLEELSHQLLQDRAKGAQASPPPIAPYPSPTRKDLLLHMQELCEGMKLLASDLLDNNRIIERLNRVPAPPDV
# Source text: Biological Assay for TBK1 and IKKs:
Structure (SMILES),IC50 [1] [nM],IC50 [2] [nM]
"N#Cc1cc(-c2ncnc3[nH]c(-c4ccc(N5CCOCC5)cc4)nc23)ccc1OCC1CC1 [Example 202, 2-(cyclopropylmethoxy)-5-(8-(4-morpholinophenyl)-9H-purin-6-yl)benzonitrile]",> 1000,> 1000
"Cc1ncc(-c2cc3c(-c4ccc(OC5CCOCC5)c(C#N)c4)ncnc3[nH]2)s1 [Example 190, 5-(6-(2-methylthiazol-5-yl)-7H-pyrrolo[2,3-d]pyrimidin-4-yl)-2-((tetrahydro-2H-pyran-4-yl)oxy)benzonitrile]",7.91,14.1
"N#Cc1cc(-c2ccnc3[nH]c(-c4ccc(N5CCOCC5)cc4)cc23)ccc1O[C@@H]1CCN(C2COC2)C1 [Example 87, (R)-5-(2-(4-morpholinophenyl)-1H-pyrrolo[2,3-b]pyridin-4-yl)-2-((1-(oxetan-3-yl)pyrrolidin-3-yl)oxy)benzonitrile]",26.8,63
"Cn1cc(-c2nc3c(-c4ccc(OC5CCOCC5)c(C#N)c4)ncnc3[nH]2)cn1 [Example 213, 5-(8-(1-methyl-1H-pyrazol-4-yl)-9H-purin-6-yl)-2-((tetrahydro-2H-pyran-4-yl)oxy)benzonitrile]",12.4,30.2
"CC(C)(C)OC(=O)N1CCC(Oc2ccc(-c3ccnc4[nH]c(-c5ccc(N6CCOCC6)cc5)cc34)cc2C#N)CC1 [Example 21, tert-butyl 4-(2-cyano-4-(2-(4-morpholinophenyl)-1H-pyrrolo[2,3-b]pyridin-4-yl)phenoxy)piperidine-1-carboxylate]",696,> 1000
"CC1(COc2ccc(-c3ccnc4[nH]c(-c5ccc(N6CCOCC6)cc5)cc34)cc2C#N)COC1 [Example 12, 2-((3-methyloxetan-3-yl)methoxy)-5-(2-(4-morpholinophenyl)-1H-pyrrolo[2,3-b]pyridin-4-yl)benzonitrile]",14.1,41

# More lines, now with the values ahead:
IC50 [1] [nM],IC50 [2] [nM],Structure (SMILES)
> 1000,> 1000,"N#Cc1cc(-c2cnnc3[nH]c(-c4ccc(N5CCOCC5)cc4)nc23)ccc1OC1CCOCC1 [Example 401, 5-(8-(4-morpholinophenyl)-9H-imidazo[4,5-c]pyridazin-6-yl)-2-((tetrahydro-2H-pyran-4-yl)oxy)benzonitrile]"
4.1,9.9,"N#Cc1cc(-c2ccnc3[nH]c(-c4ccc(N5CCOCC5)nc4)cc23)ccc1OC1CCOCC1 [Example 81, 5-(2-(6-morpholinopyridin-3-yl)-1H-pyrrolo[2,3-b]pyridin-4-yl)-2-((tetrahydro-2H-pyran-4-yl)oxy)benzonitrile]"
37.1,96,"N#Cc1cc(-c2ncnc3[nH]c(-c4ccc(C5CCN(CC(F)(F)F)CC5)cc4)nc23)ccc1OC1CCNCC1 [Example 261, 2-(piperidin-4-yloxy)-5-(8-(4-(1-(2,2,2-trifluoroethyl)piperidin-4-yl)phenyl)-9H-purin-6-yl)benzonitrile]"
298,564,"N#Cc1cc(-c2ncnc3[nH]c(Nc4cccc(N5CCOCC5)c4)nc23)ccc1OC1CCOCC1 [Example 194, 5-(8-((3-morpholinophenyl)amino)-9H-purin-6-yl)-2-((tetrahydro-2H-pyran-4-yl)oxy)benzonitrile]"
2.28,7.37,"COc1cc(-c2cc3c(-c4ccc(OC5CCOCC5)c(C#N)c4)ncnc3[nH]2)ccc1N1CCN(S(C)(=O)=O)CC1 [Example 135, 5-(6-(3-methoxy-4-(4-(methylsulfonyl)piperazin-1-yl)phenyl)-7H-pyrrolo[2,3-d]pyrimidin-4-yl)-2-((tetrahydro-2H-pyran-4-yl)oxy)benzonitrile]"
1.42,3.15,"CS(=O)(=O)N1CCN(c2ccc(-c3cc4c(-c5ccc(OC6CCOCC6)c(C#N)c5)ncnc4[nH]3)cc2)CC1 [Example 215, 5-(6-(4-(4-(methylsulfonyl)piperazin-1-yl)phenyl)-7H-pyrrolo[2,3-d]pyrimidin-4-yl)-2-((tetrahydro-2H-pyran-4-yl)oxy)benzonitrile]"

# From patent US10072001B2, “Tank-binding kinase inhibitor compounds” (Gilead Sciences, Inc., priority 2014, dated 2018)
